Results taken from US8747846B2, “Compositions and methods for immunization against drug resistant Acinetobacter baumannii” (priority 2011, dated 2014).
≈ marks a conversion by molar mass, not a printed value. Read-outs that look alike come from different tables or passages of the source.

How the values were obtained:
Type in all cases: cell-based, Acinetobacter baumannii
[1] = test system: A. baumannii ATCC 17978; assay: Antibacterial minimum inhibitory concentrations for clinical isolates; details: strain ATCC 17978; for MIC: Acinetobacter baumannii, ATCC17978
[2] = test system: A. baumannii HUMC1; assay: microbe, parasite or virus in culture; details: for MIC: Acinetobacter baumannii
[3] = test system: A. baumannii HUMC4; assay: microbe, parasite or virus in culture; details: for MIC: Acinetobacter baumannii
[4] = test system: A. baumannii HUMC5; assay: microbe, parasite or virus in culture; details: for MIC: Acinetobacter baumannii
[5] = test system: A. baumannii HUMC6; assay: microbe, parasite or virus in culture; details: for MIC: Acinetobacter baumannii
[6] = test system: A. baumannii HUMC12; assay: microbe, parasite or virus in culture; details: for MIC: Acinetobacter baumannii
[7] = HUMC1, read-out: Antibacterial Minimum Inhibitory Concentrations
[8] = strain HUMC4, read-out: Antibacterial Minimum Inhibitory Concentrations
[9] = strain HUMC5, read-out: Antibacterial Minimum Inhibitory Concentrations
[10] = strain HUMC6, read-out: Antibacterial Minimum Inhibitory Concentrations
[11] = strain HUMC12, read-out: Antibacterial Minimum Inhibitory Concentrations
[12] = strain HUMC1, read-out: Antibacterial Minimum Inhibitory Concentrations

Compound | MIC [1] [µg/mL] | MIC [2, 7] [µg/mL] | MIC [3, 8] [µg/mL] | MIC [4, 9] [µg/mL] | MIC [5, 10] [µg/mL] | MIC [6, 11] [µg/mL] | MIC [2, 12] [µg/mL] | Antibacterial Minimum Inhibitory Concentrations ([2]; strain HUMC1) | Antibacterial Minimum Inhibitory Concentrations ([3]; strain HUMC4) | Antibacterial Minimum Inhibitory Concentrations ([4]; strain HUMC5) | Antibacterial Minimum Inhibitory Concentrations ([5]; strain HUMC6) | Antibacterial Minimum Inhibitory Concentrations ([6]; strain HUMC12) | also measured
NCC[C@H](O)C(=O)N[C@@H]1C[C@H](N)[C@@H](O[C@H]2O[C@H](CN)[C@@H](O)[C@H](O)[C@H]2O)[C@H](O)[C@H]1O[C@H]1O[C@H](CO)[C@@H](O)[C@H](N)[C@H]1O [Amikacin] | 8 (≈ 13.7 µM) | > 128 | > 128 | > 128 | > 128 | > 128 |  |  |  |  |  |  | 
C[C@@H](O)[C@H]1C(=O)N2C(C(=O)O)=C(S[C@@H]3CN[C@H](CNS(N)(=O)=O)C3)[C@H](C)[C@H]12 [Doripenem] | 0.5 (≈ 1.19 µM) |  | 4 (≈ 9.51 µM) | 8 (≈ 19 µM) | 4 (≈ 9.51 µM) | 8 (≈ 19 µM) | 16 (≈ 38 µM) |  |  |  |  |  | 
C[C@@H](O)[C@H]1C(=O)N2C(C(=O)O)=C(S[C@@H]3CN[C@H](C(=O)Nc4cccc(C(=O)O)c4)C3)[C@H](C)[C@H]12 [Ertapenem] | 4 (≈ 8.41 µM) |  | 32 (≈ 67.3 µM) | 32 (≈ 67.3 µM) | 32 (≈ 67.3 µM) | 16 (≈ 33.6 µM) | 128 (≈ 269 µM) |  |  |  |  |  | 
C[C@@H](O)[C@H]1C(=O)N2C(C(=O)O)=C(SCCN=CN)C[C@H]12 [Imipenem] | 0.25 (≈ 0.835 µM) |  | 4 (≈ 13.4 µM) | 4 (≈ 13.4 µM) | 4 (≈ 13.4 µM) | 2 (≈ 6.68 µM) | 16 (≈ 53.4 µM) |  |  |  |  |  | 
C[C@@H](O)[C@H]1C(=O)N2C(C(=O)O)=C(S[C@@H]3CN[C@H](C(=O)N(C)C)C3)[C@H](C)[C@H]12 [Meropenem] | 0.25 (≈ 0.652 µM) | 32 (≈ 83.4 µM) | 8 (≈ 20.9 µM) | 8 (≈ 20.9 µM) | 8 (≈ 20.9 µM) | 4 (≈ 10.4 µM) |  |  |  |  |  |  | 
CN(C)c1cc(NC(=O)CNC(C)(C)C)c(O)c2c1C[C@H]1C[C@H]3[C@H](N(C)C)C(O)=C(C(N)=O)C(=O)[C@@]3(O)C(O)=C1C2=O [Tigecycline] | 0.25 (≈ 0.427 µM) | 4 (≈ 6.83 µM) |  |  |  |  |  |  |  |  |  |  | MIC ([3]; HUMC4, read-out: Antibacterial Minimum Inhibitory Concentrations): 4 µg/mL (≈ 6.83 µM); MIC ([4]; HUMC5, read-out: Antibacterial Minimum Inhibitory Concentrations): 4 µg/mL (≈ 6.83 µM); MIC ([5]; HUMC6, read-out: Antibacterial Minimum Inhibitory Concentrations): 4 µg/mL (≈ 6.83 µM); MIC ([6]; HUMC12, read-out: Antibacterial Minimum Inhibitory Concentrations): 4 µg/mL (≈ 6.83 µM)
Ampicillin/sulbactam |  |  |  |  |  |  |  | 16/8 | 32/16 | 32/16 | 32/16 | 32/16 | 
Colistin |  |  |  |  |  |  |  | 2 µg/mL | 2 µg/mL | 2 µg/mL | 2 µg/mL | 2 µg/mL | Antibacterial Minimum Inhibitory Concentrations [1]: 2 µg/mL
Gentamicin |  |  |  |  |  |  |  | >128 µg/mL | >128 µg/mL | >128 µg/mL | >128 µg/mL | >128 µg/mL | Antibacterial Minimum Inhibitory Concentrations [1]: 8 µg/mL
Pipercillin/tazobactam |  |  |  |  |  |  |  | <128/4 | <128/4 | <128/4 | <128/4 | <128/4 | 
